This is an account of results in patent US20240246964A1 (Arbutus Biopharma Corporation, priority 2021, published 2024).

human PD-L1, sequence (Q9NZQ7 19-290): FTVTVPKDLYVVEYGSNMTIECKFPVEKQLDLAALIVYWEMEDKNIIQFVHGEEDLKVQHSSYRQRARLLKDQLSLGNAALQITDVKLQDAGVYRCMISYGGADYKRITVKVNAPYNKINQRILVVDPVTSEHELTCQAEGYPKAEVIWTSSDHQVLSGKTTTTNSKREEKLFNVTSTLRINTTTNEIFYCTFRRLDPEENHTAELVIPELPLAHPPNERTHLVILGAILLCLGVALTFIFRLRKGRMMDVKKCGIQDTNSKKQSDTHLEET

This experiment addresses human PD-L1 (Homo sapiens (Human), UniProt Q9NZQ7). The experiment in a line: T cell activation luciferase reporter cell culture system (T Cell Activation Assay). It is filed as cell-based. The conditions noted are these: luciferase reporter assay; PD-L1 aAPC/CHO-K1 cells with PD-1 effector Jurkat T cells. (A reporter such as luciferase makes a cellular process visible.)
Molecule `COc1cc(-c2nccc(-c3cccc(-c4ccc(CNC[C@@H]5CCC(=O)N5)c(OC)n4)c3Cl)c2Cl)cc2c1CCN(C[C@H](C)O)C2` [Cmpd 44, (S)-5-((((6-(2-chloro-3-(3-chloro-2-(2-((S)-2-hydroxypropyl)-5-methoxy-1,2,3,4-tetrahydroisoquinolin-7-yl)pyridin-4-yl)phenyl)-2-methoxypyridin-3-yl)methyl)amino)methyl)pyrrolidin-2-one] had an EC50 of 54.1 nM. That is a double-digit nanomolar value.
For the molecule `COc1cc(-c2nccc(-c3cccc(-c4ccc(CNC[C@@H]5CCC(=O)N5)c(OC)n4)c3Cl)c2Cl)cc2c1CCN(CC(C)(C)O)C2` [Cmpd 45, (S)-5-((((6-(2-chloro-3-(3-chloro-2-(2-(2-hydroxy-2-methylpropyl)-5-methoxy-1,2,3,4-tetrahydroisoquinolin-7-yl)pyridin-4-yl)phenyl)-2-methoxypyridin-3-yl)methyl)amino)methyl)pyrrolidin-2-one], the EC50 was 892 nM. Compared with the last molecule, the EC50 is about 16-fold higher.
With `COc1nc(-c2cccc(-c3ccnc(-c4cc(F)c5c(c4)CCN(CC(C)(C)O)C5)c3Cl)c2Cl)ccc1CNC[C@@H]1CCC(=O)N1` [Cmpd 46, (S)-5-((((6-(2-chloro-3-(3-chloro-2-(8-fluoro-2-(2-hydroxy-2-methylpropyl)-1,2,3,4-tetrahydroisoquinolin-6-yl)pyridin-4-yl)phenyl)-2-methoxypyridin-3-yl)methyl)amino)methyl)pyrrolidin-2-one] the figure was 171 nM.
As to `COc1nc(-c2cccc(-c3ccnc(-c4cc(F)c5c(c4)CN(CC(C)(C)O)CC5)c3Cl)c2Cl)ccc1CNC[C@@H]1CCC(=O)N1` [Cmpd 47, (S)-5-((((6-(2-chloro-3-(3-chloro-2-(5-fluoro-2-(2-hydroxy-2-methylpropyl)-1,2,3,4-tetrahydroisoquinolin-7-yl)pyridin-4-yl)phenyl)-2-methoxypyridin-3-yl)methyl)amino)methyl)pyrrolidin-2-one], the EC50 stood at 10000 nM.
Regarding `COc1cc(-c2nccc(-c3cccc(-c4ccc(CNC[C@@H]5CCC(=O)N5)c(OC)n4)c3Cl)c2Cl)cc2c1CN(CCC(C)(C)O)CC2` [Cmpd 49, (S)-5-((((6-(2-chloro-3-(3-chloro-2-(2-(3-hydroxy-3-methylbutyl)-8-methoxy-1,2,3,4-tetrahydroisoquinolin-6-yl)pyridin-4-yl)phenyl)-2-methoxypyridin-3-yl)methyl)amino)methyl)pyrrolidin-2-one], it took 37 nM to reach a half-maximal effect (EC50).
In the case of `COc1cc(-c2nccc(-c3cccc(-c4ccc(CNC[C@@H]5CCC(=O)N5)c(OC)n4)c3Cl)c2Cl)cc2c1CN(C[C@H](C)O)CC2` [Cmpd 50, (S)-5-((((6-(2-chloro-3-(3-chloro-2-(2-((S)-2-hydroxypropyl)-8-methoxy-1,2,3,4-tetrahydroisoquinolin-6-yl)pyridin-4-yl)phenyl)-2-methoxypyridin-3-yl)methyl)amino)methyl)pyrrolidin-2-one], a half-maximal effect (EC50) was put at 29.1 nM.
The molecule `COc1cc(-c2nccc(-c3cccc(-c4ccc(CNC[C@@H]5CCC(=O)N5)c(OC)n4)c3Cl)c2Cl)cc2c1CN(CCC1(O)CCC1)CC2` [Cmpd 51, (S)-5-((((6-(2-chloro-3-(3-chloro-2-(2-(2-(1-hydroxycyclobutyl)ethyl)-8-methoxy-1,2,3,4-tetrahydroisoquinolin-6-yl)pyridin-4-yl)phenyl)-2-methoxypyridin-3-yl)methyl)amino)methyl)pyrrolidin-2-one] had a concentration for a half-maximal effect (EC50) of 74.5 nM.
For `COc1cc(-c2nccc(-c3cccc(-c4ccc(CNC[C@@H]5CCC(=O)N5)c(OC)n4)c3Cl)c2Cl)cc2c1CN(CC(O)C(C)C)CC2` (stereo partly drawn) [Cmpd 53, (5S)-5-((((6-(2-chloro-3-(3-chloro-2-(2-(2-hydroxy-3-methylbutyl)-8-methoxy-1,2,3,4-tetrahydroisoquinolin-6-yl)pyridin-4-yl)phenyl)-2-methoxypyridin-3-yl)methyl)amino)methyl)pyrrolidin-2-one], the EC50 was found to be 399 nM. This EC50 is about 5.4-fold higher than that of the molecule before.

What is called EC50 is the midpoint of the concentration-response curve.
